Laboratory results as given in US11298363B2, “Triazolobenzazepines as vasopressin V1a receptor antagonists” (RICHTER GEDEON NYRT., priority 2017, dated 2022).
Structures can show the parent of a compound that is named as a salt.

Key:
[1] = molecular target: T1, human vasopressin V1a receptor (Homo sapiens, UniProt P37288); test: Functional assay on human vasopressin V1a receptor expressing cell line (intracellular Ca2+ fluorescence); format: cell-based; conditions: 1321N1 cells, (Arg8)-vasopressin at EC80; read-out: IC50 (nM) on hV1a cell line
Description: Functional Assay to Test Compounds on Human Vasopressin V1a Receptor Expressing Cell Line
The ordinary secondary messenger pathway of the measured GPCR receptor was used, the endogenous Gq-associated system.
Using 30,000 cells/plate, compounds were measured on 96-well plates. The buffer composition of the measurements was the following (expressed in mM): 140 NaCl, 5 KCl, 2 CaCl2), 2 MgCl2, 10 glucose, 10 HEPES (4-(2-hydroxyethyl)-1-piperazine-ethanesulfonic acid), 2 probenecid, pH=7.4. FLIPR Calcium 5 kit (Molecular Devices) was used as fluorescent dye, the medium was not removed prior to filling with the dye and the cells were not washed out either before or after. The incubation was performed at room temperature, the final concentration of DMSO was 1%. The materials to be measured were administered in 15 to 20 minutes pretreatment, at least two parallels of each compound in each concentration was measured.
Fluorescence signal was used to determine the intracellular Ca^2+ level, the reader was FlexStation II96. […] The fluorescence signal was logged in every 1.4 seconds for 1 minute. The reference compounds used were the following: (Arg^8)-vasopressin as agonist at concentration of EC80, determined for each plate, and relcovaptan as antagonist at 1 μM. The % of inhibition at each concentration and the IC50 value of the compounds were determined where a concentration line was also measured.
The total AVP concentration-response curve was recorded on each plate. The effect of compounds measured was expressed by percentage of relative inhibition compared to control response. […] The average IC50 values were calculated from at least three independent measurements in all cases.

[2] = molecular target: T1, human vasopressin V1a receptor; test: Human vasopressin V1a receptor binding assay; conditions: 1321N1 cell membranes, [3H]vasopressin; read-out: Ki (nM) on hV1a cell line
Description: Human Vasopressin V1a Receptor Binding Assay
Cells were suspended in preparative buffer (50 mM Tris, 1 mM EDTA, 0.1 mM PMSF) and homogenized with glass homogenizing potter. To separate the raw membrane fraction two consecutive centrifugation procedures (40,000 g for 20 minutes at 4° C.) were executed, then the membrane was taken into the preparatory buffer during a final washing step, it was divided into aliquots which were stored at −80° C. until the time of measurement.
To determine the final affinity value, the results of at least two independent experiments were taken into account.
Non-specific binding values were determined in the presence of unlabeled 1.2×10^−6 M (Arg^8)-vasopressin. Samples were incubated in a total volume of 0.33 ml for 60 minutes at 27° C. Membrane-bound and free ligands were separated by filtration through a 0.5% polyethyleneimine-impregnated UniFilter® GF/B™. After drying the filter plates, 40 μl Microscint-20 (Packard) scintillation cocktail was added to the samples. Finally, radioactivity was measured using MicroBeta^2 Microplate Counter (Perkin Elmer).
During fitting, the asymptotes are not fixed. The K values (inhibition constant) are given with Cheng-Prusoff equation Ki=IC50/[1+(L/KD)] wherein [L] is the radioligand concentration used in the experiment and [KD] is the affinity of the radioactively labelled ligand for the given receptor. The KD is determined beforehand using the Scatchard curve.

T1 sequence (P37288 whole entry): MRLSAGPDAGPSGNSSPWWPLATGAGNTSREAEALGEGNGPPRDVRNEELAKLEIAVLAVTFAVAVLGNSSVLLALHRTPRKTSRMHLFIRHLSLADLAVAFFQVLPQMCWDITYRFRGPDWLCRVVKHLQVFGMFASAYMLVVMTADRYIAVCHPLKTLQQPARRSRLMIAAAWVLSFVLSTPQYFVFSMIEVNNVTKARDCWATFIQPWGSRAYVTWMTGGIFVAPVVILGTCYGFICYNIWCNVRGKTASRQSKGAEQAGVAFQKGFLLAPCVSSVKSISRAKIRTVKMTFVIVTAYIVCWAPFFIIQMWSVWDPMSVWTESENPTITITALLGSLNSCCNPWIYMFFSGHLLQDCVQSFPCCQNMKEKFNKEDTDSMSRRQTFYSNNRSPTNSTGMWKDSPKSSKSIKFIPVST

IC50 [1] | Ki [2] | Structure (SMILES)
480 nM | 111 nM | CC(C)(C)OC(=O)NC1Cc2cc(C(F)(F)F)ccc2-n2c(nnc2[C@H]2CC[C@H](Oc3ccccn3)CC2)C1 (stereo partly drawn) [Example 33, Tert-butyl {1-[trans-4-(pyridin-2-yloxy)cyclohexyl]-8-(trifluoromethyl)-5,6-dihydro-4H-[1,2,4]triazolo[4,3-a][1]benzazepin-5-yl}carbamate]
700 nM | 52 nM | NC1Cc2cc(C(F)(F)F)ccc2-n2c(nnc2[C@H]2CC[C@H](Oc3ccccn3)CC2)C1 (stereo partly drawn) [Example 34, 1-[trans-4-(pyridin-2-yloxy)cyclohexyl]-8-(trifluoromethyl)-5,6-dihydro-4H-[1,2,4]triazolo[4,3-a][1]benzazepine-5-amine hydrochloride]
160 nM | 9.7 nM | CN(C)C1Cc2cc(C(F)(F)F)ccc2-n2c(nnc2[C@H]2CC[C@H](Oc3ccccn3)CC2)C1 (stereo partly drawn) [Example 35, N,N-dimethyl-1-[trans-4-(pyridin-2-yloxy)cyclohexyl]-8-(trifluoromethyl)-5,6-dihydro-4H-[1,2,4]triazolo[4,3-a][1]benzazepine-5-amine]
610 nM | 36 nM | CC(C)NC1Cc2cc(C(F)(F)F)ccc2-n2c(nnc2[C@H]2CC[C@H](Oc3ccccn3)CC2)C1 (stereo partly drawn) [Example 36, N-(propan-2-yl)-1-[trans-4-(pyridin-2-yloxy)cyclohexyl]-8-(trifluoromethyl)-5,6-dihydro-4H-[1,2,4]triazolo[4,3-a][1]benzazepine-5-amine]
100 nM | 7 nM | Cc1ccc2c(c1)CC(N)Cc1nnc([C@H]3CC[C@H](Oc4ccccn4)CC3)n1-2 (stereo partly drawn) [Example 37, 8-methyl-1-[trans-4-(pyridin-2-yloxy)cyclohexyl]-5,6-dihydro-4H-[1,2,4]triazolo[4,3-a][1]benzazepine-5-amine]
30 nM | 2 nM | Cc1ccc2c(c1)CC(NC(C)C)Cc1nnc([C@H]3CC[C@H](Oc4ccccn4)CC3)n1-2 (stereo partly drawn) [Example 38, 8-methyl-N-(propan-2yl)-1-[trans-4-(pyridin-2-yloxy)cyclohexyl]-5,6-dihydro-4H-[1,2,4]triazolo[4,3-a][1]benzazepine-5-amine]
8.3 nM | 1.4 nM | NC1Cc2cc(Br)ccc2-n2c(nnc2[C@H]2CC[C@H](Oc3ccccn3)CC2)C1 (stereo partly drawn) [Example 39, 8-bromo-1-[trans-4-(pyridin-2-yloxy)cyclohexyl]-5,6-dihydro-4H-[1,2,4]triazolo[4,3-a][1]benzazepine-5-amine]
8.4 nM | 0.9 nM | CC(C)NC1Cc2cc(Br)ccc2-n2c(nnc2[C@H]2CC[C@H](Oc3ccccn3)CC2)C1 (stereo partly drawn) [Example 40, 8-bromo-N-(propan-2-yl)-1-[trans-4-(pyridin-2-yloxy)cyclohexyl]-5,6-dihydro-4H-[1,2,4]triazolo[4,3-a][1]benzazepine-5-amine]
210 nM | 88 nM | NC1Cc2cc(Cl)ccc2-n2c(nnc2[C@H]2CC[C@H](C(F)(F)F)CC2)C1 (some centres unmarked) [Example 43]
480 nM | 26 nM | CC(C)NC1Cc2cc(Cl)ccc2-n2c(nnc2[C@H]2CC[C@H](C(F)(F)F)CC2)C1 (stereo partly drawn) [Example 44, 8-chloro-N-(propan-2-yl)-1-[trans-4-(trifluoromethyl)cyclohexyl]-5,6-dihydro-4H-[1,2,4]triazolo[4,3-a][1]benzazepine-5-amine]
870 nM | 38 nM | NC1Cc2cc(Br)ccc2-n2c(nnc2[C@H]2CC[C@H](C(F)(F)F)CC2)C1 (stereo partly drawn) [Example 45, 8-bromo-1-[trans-4-(trifluoromethyl)cyclohexyl]-5,6-dihydro-4H-[1,2,4]triazolo[4,3-a][1]benzazepine-5-amine]
410 nM | 23 nM | CC(C)NC1Cc2cc(Br)ccc2-n2c(nnc2[C@H]2CC[C@H](C(F)(F)F)CC2)C1 (stereo partly drawn) [Example 46, 8-bromo-N-(propan-2-yl)-1-[trans-4-(trifluoromethyl)cyclohexyl]-5,6-dihydro-4H-[1,2,4]triazolo[4,3-a][1]benzazepine-5-amine]
340 nM | 18 nM | O=C1Cc2cc(C(F)(F)F)ccc2-n2c(nnc2[C@H]2CC[C@H](Oc3ccccn3)CC2)C1 [Example 48, 1-[trans-4-(pyridin-2-yloxy)cyclohexyl]-8-(trifluoromethyl)-4H-[1,2,4]triazolo[4,3-a][1]benzazepin-5(6H)-one]
140 nM | 7.5 nM | OC1Cc2cc(C(F)(F)F)ccc2-n2c(nnc2[C@H]2CC[C@H](Oc3ccccn3)CC2)C1 (stereo partly drawn) [Example 49, 1-[trans-4-(pyridin-2-yloxy)cyclohexyl]-8-(trifluoromethyl)-5,6-dihydro-4H-[1,2,4]triazolo[4,3-a][1]benzazepin-5-ol]
20 nM | 2.7 nM | COC1Cc2cc(C(F)(F)F)ccc2-n2c(nnc2[C@H]2CC[C@H](Oc3ccccn3)CC2)C1 (stereo partly drawn) [Example 50, 5-methoxy-1-[trans-4-(pyridin-2-yloxy)cyclohexyl]-8-(trifluoromethyl)-5,6-dihydro-4H-[1,2,4]triazolo[4,3-a][1]benzazepine]
55 nM | 7.6 nM | FC(F)(F)c1ccc2c(c1)CC(OCC1CC1)Cc1nnc([C@H]3CC[C@H](Oc4ccccn4)CC3)n1-2 (stereo partly drawn) [Example 51, 5-(cyclopropylmethoxy)-1-[trans-4-(pyridin-2-yloxy)cyclohexyl]-8-(trifluoromethyl)-5,6-dihydro-4H-[1,2,4]triazolo[4,3-a][1]benzazepine]
2.5 nM | 0.8 nM | Clc1ccc2c(c1)CC(OCC1CC1)Cc1nnc([C@H]3CC[C@H](Oc4ccccn4)CC3)n1-2 (stereo partly drawn) [Example 59, 5-(Cyclopropylmethoxy)-8-chloro-1-[trans-4-(pyridin-2-yloxy)cyclohexyl]-5,6-dihydro-4H-[1,2,4]triazolo[4,3-a][1]benzazepine]
1.1 nM | 0.5 nM | O=C1Cc2cc(Br)ccc2-n2c(nnc2[C@H]2CC[C@H](Oc3ccccn3)CC2)C1 [Example 64]
1 nM | 0.5 nM | OC1Cc2cc(Br)ccc2-n2c(nnc2[C@H]2CC[C@H](Oc3ccccn3)CC2)C1 (stereo partly drawn) [Example 65, 8-bromo-1-[trans-4-(pyridin-2-yloxy)cyclohexyl]-5,6-dihydro-4H-[1,2,4]triazolo[4,3-a][1]benzazepin-5-ol]
2.3 nM | 0.6 nM | CN(C)[C@H]1Cc2cc(Cl)ccc2-n2c(nnc2[C@H]2CC[C@H](Oc3ccccn3)CC2)C1 [Example 67]
33 nM | 9.4 nM | CC(=O)N[C@H]1Cc2cc(Cl)ccc2-n2c(nnc2[C@H]2CC[C@H](Oc3ccccn3)CC2)C1 [Example 68, (5S)—N-{8-chloro-1[trans-4-(pyridin-2-yloxy)cyclohexyl]-5,6-dihydro-4H-[1,2,4]triazolo[4,3-a][1]benzazepin-5-yl}acetamide]
139 nM | 10 nM | Clc1ccc2c(c1)CC1(Cc3nnc([C@H]4CC[C@H](CN5CCCCC5)CC4)n3-2)OCCO1 [Example 69, 8′-chloro-1′-[trans-4-(piperidin-1-ylmethyl)cyclohexyl]-4′H,6′H-spiro[1,3-dioxolane-2,5′-[1,2,4]triazolo[4,3-a][1]benzazepine]]
1.2 nM | 0.4 nM | O=C([C@H]1CC[C@H](c2nnc3n2-c2ccc(Cl)cc2CC2(C3)OCCO2)CC1)N1CCCC1 [Example 70, [Trans-4-(8′-chloro-4′H,6′H-spiro[1,3-dioxolane-2,5′-[1,2,4]triazolo[4,3-a][1]benzazepine]-1′-yl)cyclohexyl](pyrrolidin-1-yl)methanone]
22 nM | 14 nM | O=C1Cc2cc(Cl)ccc2-n2c(nnc2[C@H]2CC[C@H](C(F)(F)F)CC2)C1 [Example 71, 8-chloro-1-[trans-4-(trifluoromethyl)cyclohexyl]-4H-[1,2,4]triazolo[4,3-a][1]benzazepin-5(6H)-one]

Structure (SMILES) | IC50 [1] | Ki [2]
CC(C)(C)[Si](C)(C)OC1Cc2cc(Cl)ccc2-n2c(nnc2[C@H]2CC[C@H](Oc3ccccn3)CC2)C1 (stereo partly drawn) [Example 52, 5-{[tert-butyl(dimethyl)silyl]oxy}-8-chloro-1-[trans-4-(pyridin-2-yloxy)cyclohexyl]-5,6-dihydro-4H-[1,2,4]triazolo[4,3-a][1]benzazepine] | 60 nM | 11 nM
